From patent US12215093B2, “Bicyclic carboxamides and methods of use thereof” (Tempest Therapeutics, Inc., priority 2018, dated 2025)
Where two headings read alike, the source gives them in different places.

What was measured:
EP4 = biological target: T1, EP4 (Homo sapiens, UniProt P35408); assay: Functional calcium flux assay, EP4; type: cell-based; settings: stably transfected HEK293 cells; PGE2 10 nM; read-out: EP4 Ca2+-flux assay IC50
T1 construct: host or cells: stably transfected HEK293 cells co-expressing a promiscuous G protein and a clytin variant

EP2 [1] = biological target: T2, EP2 (Homo sapiens, UniProt P43116); assay: cell-based;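 also: functional calcium flux assay in stably transfected HEK293 cells expressing EP2 coupled via a promiscuous G protein, clytin luminescence read as area under the curve, 30 min compound preincubation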
[2] = Relative activity of resolved enantiomers/diastereomers (assay not stated); settings: compared with the other eluting peak
EP2 [3] = biological target: T2, EP2

T2 sequence (P43116 whole entry): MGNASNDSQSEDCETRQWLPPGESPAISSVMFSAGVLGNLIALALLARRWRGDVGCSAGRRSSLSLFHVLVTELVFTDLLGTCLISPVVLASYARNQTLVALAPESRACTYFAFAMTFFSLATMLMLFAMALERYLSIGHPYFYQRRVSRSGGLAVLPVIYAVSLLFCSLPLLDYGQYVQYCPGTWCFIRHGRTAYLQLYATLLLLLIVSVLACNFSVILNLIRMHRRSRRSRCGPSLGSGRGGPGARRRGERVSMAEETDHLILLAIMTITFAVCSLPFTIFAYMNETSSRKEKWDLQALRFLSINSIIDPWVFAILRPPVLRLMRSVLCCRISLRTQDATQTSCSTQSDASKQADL
T1 sequence (P35408 whole entry): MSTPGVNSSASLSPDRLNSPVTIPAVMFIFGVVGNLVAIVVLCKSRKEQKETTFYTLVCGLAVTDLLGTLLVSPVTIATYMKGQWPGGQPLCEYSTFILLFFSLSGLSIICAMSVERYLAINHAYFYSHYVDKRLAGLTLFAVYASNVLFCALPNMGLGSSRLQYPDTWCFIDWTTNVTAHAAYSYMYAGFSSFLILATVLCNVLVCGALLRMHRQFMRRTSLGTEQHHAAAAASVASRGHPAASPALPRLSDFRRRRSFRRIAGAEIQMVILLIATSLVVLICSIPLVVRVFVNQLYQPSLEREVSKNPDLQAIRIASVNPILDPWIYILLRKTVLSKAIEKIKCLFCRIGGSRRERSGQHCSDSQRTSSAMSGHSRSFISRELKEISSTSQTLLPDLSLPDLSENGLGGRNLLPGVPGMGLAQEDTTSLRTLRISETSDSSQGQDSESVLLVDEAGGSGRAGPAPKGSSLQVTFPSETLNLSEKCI

SMILES | IC50 (EP4) [µM] | IC50 (EP2 [1]) [µM] | more active enantiomer / diastereomer after chiral SFC resolution [2] | IC50 (EP2 [3]) [µM]
[2H]C([2H])([2H])C([2H])(c1ccc(-c2ccccc2)cc1)n1ncc2cccc(C(=O)NC3CC4(C3)CC(C(=O)O)C4)c21 (racemic) [Example 168, (Sa)-6-(1-((racemic)-1-([1,1′-Biphenyl]-4-yl)ethyl-1,2,2,2-d4)-1H-indazole-7-carboxamido)spiro[3.3]heptane-2-carboxylic acid] | 0.0012 | 0.028 |  | 
CC(c1ccc(-c2ccccc2)cc1)n1ncc2cccc(C(=O)NC3CC4(C3)CC(C(=O)O)C4)c21 (single isomer, unassigned) [Example 125, (Sa)-6-(1-((R) or (S)-1-([1,1′-Biphenyl]-4-yl)-ethyl)-1H-indazole-7-carboxamido)spiro[3.3]heptane-2-carboxylic acid] | < 0.001 | < 0.025 | more active diastereomer | 
CC(c1ccc(-c2ccccc2)cc1)n1ncc2c(Cl)ccc(C(=O)NC3CC4(C3)CC(C(=O)O)C4)c21 (single isomer, unassigned) [Example 130, (Sa)-6-(1-((R) or (S)-1-([1,1′-biphenyl]-4-yl)-ethyl)-4-chloro-1H-indazole-7-carboxamido)spiro[3.3]heptane-2-carboxylic acid] | < 0.001 | < 0.025 |  | 
COc1ccc2cc(-c3ccc(Cn4ccc5c(F)ccc(C(=O)NC6CC7(CC(CC(=O)O)C7)C6)c54)cc3)ccc2n1 (single isomer, unassigned) [Example 137, (Sa)-2-(6-(4-Fluoro-1-(4-(2-methoxyquinolin-6-yl)benzyl)-1H-indole-7-carboxamido)spiro[3.3]heptan-2-yl)acetic acid] | 0.0032 | 0.064 |  | 
COc1ccc2cc(-c3ccc(Cn4ccc5c(F)ccc(C(=O)NC6CC7(CC(CC(=O)O)C7)C6)c54)cc3)ccc2n1 (single isomer, unassigned) [Example 140, (Ra)-2-(6-(4-Fluoro-1-(4-(2-methoxyquinolin-6-yl)benzyl)-1H-indole-7-carboxamido)spiro[3.3]heptan-2-yl)acetic acid] | < 0.001 | < 0.025 |  | 
[2H]C([2H])([2H])C([2H])(c1ccc(-c2ccccc2)cc1)n1ncc2c(Cl)ccc(C(=O)NC3CC4(C3)CC(C(=O)O)C4)c21 (single isomer, unassigned) [Example 167, (Sa)-6-(1-((R) or (S)-1-([1,1′-Biphenyl]-4-yl)ethyl-1,2,2,2-d4)-4-chloro-1H-indazole-7-carboxamido)spiro[3.3]heptane-2-carboxylic acid] | 0.0035 | 0.041 |  | 
[2H]C([2H])([2H])C([2H])(c1ccc(-c2ccccc2)cc1)n1ncc2cccc(C(=O)NC3CC4(C3)CC(C(=O)O)C4)c21 (single isomer, unassigned) [Example 169, (Sa)-6-(1-((R) or (S)-1-([1,1′-Biphenyl]-4-yl)ethyl-1,2,2,2-d4)-1H-indazole-7-carboxamido)spiro[3.3]heptane-2-carboxylic acid] | 0.0015 | 0.063 |  | 
CC(c1ccc(-c2ccccc2)cc1)n1ncc2cc(Cl)cc(C(=O)NC3CC4(C3)CC(C(=O)O)C4)c21 (single isomer, unassigned) [Example 174, (Sa)-6-(1-((R) or (S))-1-([1,1′-Biphenyl]-4-yl)ethyl)-5-chloro-1H-indazole-7-carboxamido)spiro[3.3]heptane-2-carboxylic acid] | 0.0064 |  | more active diastereomer | < 0.025
O=C(NC1CC2(C1)CC(C(=O)O)C2)c1ccc(F)c2ccn(Cc3ccc(-c4ccccc4)cc3)c12 (stereo not drawn) [Example 9, (Sa)-6-(1-([1,1′-Biphenyl]-4-ylmethyl)-4-fluoro-1H-indole-7-carboxamido)spiro[3.3]heptane-2-carboxylic acid] |  |  | more active enantiomer | 
O=C(NC1CC2(C1)CC(C(=O)O)C2)c1ccc(F)c2ccn(Cc3ccc(-c4ccncc4)cc3)c12 (stereo not drawn) [Example 24, (Sa)-6-(4-Fluoro-1-(4-(pyridin-4-yl)benzyl)-1H-indole-7-carboxamido)spiro[3.3]heptane-2-carboxylic acid] |  |  | more active enantiomer | 
COc1ccc(-c2ccc(Cn3ccc4c(F)ccc(C(=O)NC5CC6(C5)CC(C(=O)O)C6)c43)cc2)cc1Cl (stereo not drawn) [Example 25, (Sa)-6-(1-((3′-Chloro-4′-methoxy-[1,1′-biphenyl]-4-yl)methyl)-4-fluoro-1H-indole-7-carboxamido)spiro[3.3]heptane-2-carboxylic acid] | < 0.001 | < 0.025 |  | 
[2H]C([2H])([2H])Oc1cccc(-c2ccc(Cn3ccc4c(F)ccc(C(=O)NC5CC6(C5)CC(C(=O)O)C6)c43)cc2)c1 (stereo not drawn) [Example 52, (Sa)-6-(4-fluoro-1-((3’-methoxy-d3-[1,1′-biphenyl]-4-yl)methy1)-1H-indole-7-carboxamido)spiro[3.3]heptane-2-carboxylic acid] | < 0.001 | < 0.025 |  | 
CCOc1cccc(-c2ccc(Cn3ccc4c(F)ccc(C(=O)NC5CC6(C5)CC(C(=O)O)C6)c43)cc2)c1 (stereo not drawn) [Example 54, (Sa)-6-(1-((3’-ethoxy-[1,1′-biphenyl]-4-yl)methyl)-4-fluoro-1H-indole-7-carboxamido)spiro[3.3]heptane-2-carboxylic acid] | < 0.001 | 0.043 |  | 
CCOc1cccc(-c2ccc(Cn3ccc4c(F)ccc(C(=O)NC5CC6(C5)CC(C(=O)O)C6)c43)cc2)n1 (stereo not drawn) [Example 56, (Sa)-6-(1-(4-(6-Ethoxypyridin-2-yl)benzyl)-4-fluoro-1H-indole-7-carboxamido)spiro[3.3]heptane-2-carboxylic acid] | < 0.001 | 0.076 |  | 
O=C(NC1CC2(C1)CC(C(=O)O)C2)c1ccc(F)c2ccn(Cc3ccc(-c4ccccc4)c(F)c3)c12 (stereo not drawn) [Example 65, (Sa)-6-(4-Fluoro-1-((2-fluoro-[1,1′-biphenyl]-4-yl)methyl)-1H-indole-7-carboxamido)spiro[3.3]heptane-2-carboxylic acid] | 0.003 | 0.043 |  | 
O=C(NC1CC2(C1)CC(C(=O)O)C2)c1ccc(F)c2ccn(Cc3ccc(-c4ccccc4)cc3F)c12 (stereo not drawn) [Example 66, (Sa)-6-(4-Fluoro-1-((3-fluoro-[1,1′-biphenyl]-4-yl)methyl)-1H-indole-7-carboxamido)spiro[3.3]heptane-2-carboxylic acid] | < 0.001 | < 0.025 |  | 
O=C(NC1CC2(C1)CC(C(=O)O)C2)c1ccc(Cl)c2ccn(Cc3ccc(N4CCOCC4)cc3)c12 (stereo not drawn) [Example 71, (Sa)-6-(4-Chloro-1-(4-morpholinobenzyl)-1H-indole-7-carboxamido)spiro[3.3]heptane-2-carboxylic acid] | < 0.001 | 0.094 |  | 
COc1cc(-c2ccc(Cn3ncc4c(Cl)ccc(C(=O)NC5CC6(C5)CC(C(=O)O)C6)c43)cc2)ccn1 (stereo not drawn) [Example 78, (Sa)-6-(4-Chloro-1-(4-(2-methoxypyridin-4-yl)benzyl)-1H-indazole-7-carboxamido)spiro[3.3]heptane-2-carboxylic acid] | 0.0044 | 0.099 |  | 
CCOc1cccc(-c2ccc(Cn3ncc4c(Cl)ccc(C(=O)NC5CC6(C5)CC(C(=O)O)C6)c43)cc2)n1 (stereo not drawn) [Example 83, (Sa)-6-(4-Chloro-1-(4-(6-ethoxypyridin-2-yl)benzyl)-1H-indazole-7-carboxamido)spiro[3.3]heptane-2-carboxylic acid] | < 0.001 | < 0.025 |  | 
COc1cccc(-c2ccc(Cn3ccc4c(OC)ncc(C(=O)NC5CC6(C5)CC(C(=O)O)C6)c43)cc2)n1 (stereo not drawn) [Example 92, (Sa)-6-(4-Methoxy-1-(4-(6-methoxypyridin-2-yl)benzyl)-1H-pyrrolo[3,2-c]pyridine-7-carboxamido)spiro[3.3]heptane-2-carboxylic acid] | < 0.001 | < 0.025 |  | 
[2H]C1(C(=O)O)CC2(CC(NC(=O)c3ccc(F)c4ccn(Cc5ccc(-c6ccccc6)cc5)c34)C2)C1 (stereo not drawn) [Example 105, (Sa)-6-(1-([1,1′-Biphenyl]-4-ylmethyl)-4-fluoro-1H-indole-7-carboxamido)-2-deuterospiro[3.3]heptane-2-carboxylic acid] |  |  | more active enantiomer | 
CS(=O)(=O)NC(=O)C1CC2(CC(NC(=O)c3ccc(F)c4ccn(Cc5ccc(OC(F)(F)F)cc5)c34)C2)C1 (stereo not drawn) [Example 111, (Sa)-4-Fluoro-N-(6-((methylsulfonyl)carbamoyl)spiro[3.3]heptan-2-yl)-1-(4-(trifluoromethoxy)benzyl)-1H-indole-7-carboxamide] | 0.0012 | 0.038 |  | 
COc1cc(-c2ccc(Cn3ncc4cc(Cl)cc(C(=O)NC5CC6(C5)CC(C(=O)O)C6)c43)cc2)ccn1 (stereo not drawn) [Example 135, (Sa)-6-(5-Chloro-1-(4-(2-methoxypyridin-4-yl)benzyl)-1H-indazole-7-carboxamido)spiro[3.3]heptane-2-carboxylic acid] | < 0.001 | < 0.025 |  | 
CCOc1cc(-c2ccc(Cn3ncc4cc(Cl)cc(C(=O)NC5CC6(C5)CC(C(=O)O)C6)c43)cc2)ccn1 (stereo not drawn) [Example 136, (Sa)-6-(5-chloro-1-(4-(2-ethoxypyridin-4-yl)benzyl)-1H-indazole-7-carboxamido)spiro[3.3]heptane-2-carboxylic acid] | < 0.001 | < 0.025 |  | 
COc1cccc(-c2ccc(Cn3ccc4c(F)ccc(C(=O)NC5CC6(CC(CC(=O)O)C6)C5)c43)cc2)n1 (stereo not drawn) [Example 150, (Ra)-2-(6-(4-fluoro-1-(4-(6-methoxypyridin-2-yl)benzyl)-1H-indole-7-carboxamido)spiro[3.3]heptan-2-yl)acetic acid] | < 0.001 | 0.061 |  | 
O=C(NC1CC2(C1)CC(C(=O)O)C2)c1ccc(Cl)c2cnn(C3(c4ccc(-c5ccccc5)cc4)COC3)c12 (stereo not drawn) [Example 176, (Sa)-6-(1-(3-([1,1′-Biphenyl]-4-yl)oxetan-3-yl)-4-chloro-1H-indazole-7-carboxamido)spiro[3.3]heptane-2-carboxylic acid] | 0.0029 | < 0.025 |  | 
